Assay results: patent US20190119251A1, “AMIDE-SUBSTITUTED ARYLTRIAZOLE DERIVATIVES AND USES THEREOF” (BAYER PHARMA AKTIENGESELLSCHAFT, priority 2016, published 2019)

Assays:
human V2 receptor = target: T1, human V2 receptor (Homo sapiens, UniProt P30518); assay: Cellular in vitro assay for determining vasopressin receptor activity (V2 cell line, CRE-luciferase); type: cell-based; details: CHO cell line transfected with the human V2 receptor; agonist [Arg8]-vasopressin at EC50 concentration; 3 hours incubation; read-out: IC50 hV2
T1 construct: expressed in transfected cells; host or cells: CHO K1 (Chinese hamster ovary) expressing firefly luciferase under a CRE-responsive promoter
T1 sequence (P30518 whole entry): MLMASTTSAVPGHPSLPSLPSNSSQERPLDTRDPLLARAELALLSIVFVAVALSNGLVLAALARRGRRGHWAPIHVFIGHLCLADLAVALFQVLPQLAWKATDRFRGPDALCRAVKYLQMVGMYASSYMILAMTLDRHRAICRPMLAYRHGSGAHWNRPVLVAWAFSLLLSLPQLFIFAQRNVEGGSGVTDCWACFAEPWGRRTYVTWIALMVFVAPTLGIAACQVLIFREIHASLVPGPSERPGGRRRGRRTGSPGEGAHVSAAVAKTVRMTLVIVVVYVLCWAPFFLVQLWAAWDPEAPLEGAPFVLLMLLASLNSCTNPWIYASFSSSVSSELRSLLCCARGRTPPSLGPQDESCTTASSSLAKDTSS
Procedure: (§1) B-1. Cellular In Vitro Assay for Determining Vasopressin Receptor Activity
(§2) The identification of agonists and antagonists of the V 1 a and V2 vasopressin receptors from humans, rats and dogs as well as the quantification of the activity of the compounds of the invention is carried out using recombinant cell lines. These cell lines originally derive from a hamster's ovary epithelial cell (Chinese Hamster Ovary, CHO K1, ATCC: American Type Culture Collection, Manassas, Va. 20108, USA). The test cell lines constitutively express the human, rat or dog
(§3) V1 a or V2 receptors. In case of the Gag-coupled V 1 a receptors, cells are also stably transfected with a modified form of the calcium-sensitive photoproteins aequorin (human and rat V1a) or obelin (dog V 1 a), which, after reconstitution with the cofactor coelenterazine, emit light when there are increases in free calcium concentrations [Rizzuto R, Simpson A W, Brini M, Pozzan T, Nature 358, 325-327 (1992); Illarionov B A, Bondar V S, Illarionova V A, Vysotski E S, Gene 153 (2), 273-274 (1995)]. The resulting vasopressin receptor cells react to stimulation of the recombinantly expressed V 1 a receptors by intracellular release of calcium ions, which can be quantified by the resulting photoprotein luminescence. The Gs-coupled V2 receptors are stably transfected into cell lines expressing the gene for firefly luciferase under control of a CRE-responsible promoter. Activation of V2 receptors induces the activation of the CRE-responsive promoter via cAMP increase, thereby inducing the expression of firefly luciferase. The light emitted by photoproteins of V1a cell lines as well as the light emitted by firefly luciferase of V2 cell lines corresponds to the activation or inhibition of the respective vasopressin receptor. The bioluminescence of the cell lines is detected using a suitable luminometer [Milligan G, Marshall F, Rees S, Trends in Pharmacological Sciences 17, 235-237 (1996)].
Vasopressin V2 Receptor Cell Lines:
On the day before the assay, the cells are plated out in culture medium (DMEM/F12, 2% FCS, 2 mM glutamine, 10 mM HEPES) in 384-well microtiter plates and kept in a cell incubator (96% humidity, 5% v/v CO2, 37° C.). On the day of the assay, test compounds in various concentrations and the agonist [Arg^8]-vasopressin at EC50 concentration are added together to the wells, and plates are incubated for 3 hours in a cell incubator. Upon addition of the cell lysis reagent Triton™ and the substrate luciferin, luminescence of firefly luciferase is measured in a luminometer.
(§4) Table 1A below lists individual IC50 values for the compounds of the invention (including racemic mixtures as well as separated enantiomers) that were obtained from cell lines transfected with the human V1a or V2 receptor: […]

human V1a receptor = target: T2, human V1a receptor (Homo sapiens, UniProt P37288); assay: Cellular in vitro assay for determining vasopressin receptor activity (V1a cell line, aequorin luminescence); type: cell-based; details: for IC50: CHO cell line transfected with the human V1a receptor, agonist [Arg8]-vasopressin at EC50 concentration, read-out: IC50 hV1a; for ratio IC50 hV2/hV1a: ratio of cellular IC50 values, human V2 over human V1a
T2 construct: expressed in transfected cells; host or cells: CHO K1 (Chinese hamster ovary), also stably transfected with modified aequorin
T2 sequence (P37288 whole entry): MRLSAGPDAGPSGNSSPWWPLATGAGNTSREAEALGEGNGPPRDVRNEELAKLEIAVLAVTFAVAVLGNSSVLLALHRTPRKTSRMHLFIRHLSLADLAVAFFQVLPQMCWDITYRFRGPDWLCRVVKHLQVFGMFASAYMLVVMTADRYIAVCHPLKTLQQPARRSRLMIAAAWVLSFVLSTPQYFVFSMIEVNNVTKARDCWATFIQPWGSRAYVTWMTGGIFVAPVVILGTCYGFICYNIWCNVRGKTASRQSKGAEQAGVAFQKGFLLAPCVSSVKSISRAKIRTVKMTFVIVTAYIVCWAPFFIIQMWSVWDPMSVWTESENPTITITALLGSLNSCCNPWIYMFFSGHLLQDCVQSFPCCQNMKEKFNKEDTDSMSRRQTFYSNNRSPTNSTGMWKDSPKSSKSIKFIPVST
Procedure: as §1, §2, §3
Vasopressin V1a Receptor Cell Lines:
On the day before the assay, the cells are plated out in culture medium (DMEM/F12, 2% FCS, 2 mM glutamine, 10 mM HEPES, 5 μg/ml coelenterazine) in 384-well microtiter plates and kept in a cell incubator (96% humidity, 5% v/v CO2, 37° C.). On the day of the assay, test compounds in various concentrations are placed for 10 minutes in the wells of the microtiter plate before the agonist [Arg^8]-vasopressin at EC50 concentration is added. The resulting light signal is measured immediately in a luminometer.
as §4

IC50 (human V2 receptor) [nM] | IC50 (human V1a receptor) [nM] | ratio IC50 hV2/hV1a (human V1a receptor) | SMILES
4.55 | 24 | 0.2 | NC(=O)c1nc(Cn2nc(-c3ccc(Cl)cc3)n(C[C@H](O)C(F)(F)F)c2=O)nn1-c1cccc(Cl)c1 [Example 33, 1-(3-Chlorophenyl)-3-({3-(4-chlorophenyl)-5-oxo-4-[(2S)-3,3,3-trifluoro-2-hydroxypropyl]-4,5-dihydro-1H-1,2,4-triazol-1-yl}methyl)-1H-1,2,4-triazole-5-carboxamide]
7.63 | 1.11 | 6.9 | COc1ccccc1-n1nc(Cn2nc(-c3ccc(Cl)cc3)n(C[C@H](O)C(F)(F)F)c2=O)nc1C(N)=O [Example 34, 3-({3-(4-Chlorophenyl)-5-oxo-4-[(2S)-3,3,3-trifluoro-2-hydroxypropyl]-4,5-dihydro-1H-1,2,4-triazol-1-yl}methyl)-1-(2-methoxyphenyl)-1H-1,2,4-triazole-5-carboxamide]
8.46 | 0.77 | 11.1 | NC(=O)c1nc(Cn2nc(-c3ccc(Cl)cc3)n(C[C@H](O)C(F)(F)F)c2=O)nn1-c1ccccc1Cl [Example 35, 1-(2-Chlorophenyl)-3-({3-(4-chlorophenyl)-5-oxo-4-[(2S)-3,3,3-trifluoro-2-hydroxypropyl]-4,5-dihydro-1H-1,2,4-triazol-1-yl}methyl)-1H-1,2,4-triazole-5-carboxamide]
87.5 | 3.8 | 23.0 | NC(=O)c1nc(Cn2nc(-c3ccc(Cl)cc3)n(C[C@@H](O)C(F)(F)F)c2=O)nn1-c1ccccc1Cl [Example 36, 1-(2-Chlorophenyl)-3-({3-(4-chlorophenyl)-5-oxo-4-[(2R)-3,3,3-trifluoro-2-hydroxypropyl]-4,5-dihydro-1H-1,2,4-triazol-1-yl}methyl)-1H-1,2,4-triazole-5-carboxamide]

SMILES | IC50 (human V2 receptor) [nM] | IC50 (human V1a receptor) [nM] | ratio IC50 hV2/hV1a (human V1a receptor)
NC(=O)c1nc(Cn2nc(-c3ccc(Cl)cc3)n(CC(=O)C(F)(F)F)c2=O)nn1-c1ccccc1Cl [Example 37, 1-(2-Chlorophenyl)-3-{[3-(4-chlorophenyl)-5-oxo-4-(3,3,3-trifluoro-2-oxopropyl)-4,5-dihydro-1H-1,2,4-triazol-1-yl]methyll-1H-1,2,4-triazole-5-carboxamide (ketone form) or 1-(2-Chlorophenyl)-3-{[3-(4-Chlorophenyl)-5-oxo-4-(3,3,3-trifluoro-2,2-dihydroxypropyl)-4,5-dihydro-1H-1,2,4-triazol-1-yl]methyl}-1H-1,2,4-triazole-5-carboxamide (hydrate form)] | 13.5 | 1.37 | 9.9
